Data from PMC3026800, “Mechanism of Inhibition of Enveloped Virus Membrane Fusion by the Antiviral Drug Arbidol” (PLoS ONE, 2011).
Values joined by “and” are separate entries in the source; they are usually repeats but may differ in a detail not shown here. Equal values may be shown once. Read-outs that look alike come from different tables or passages of the source.

What was measured:
HCVpp [1] = assay: microbe, parasite or virus in culture; type: cell-based, hepatitis C virus; conditions: for inhibition at 11.3 µM: Hepatitis C virus, Huh-7, 6 h, read-out: Inhibition of HCVpp cell entry; for Effect on HCVpp cell entry: 11.3 µM Arb, 6 h, Huh-7 cells
[2] = system: Rd114pp (envelope glycoprotein of the RD114 feline oncovirus); type: cell-based; conditions: 11.3 µM arbidol; control pseudoparticles
[3] = Indole fluorescence quenching of tryptophan derivative in solution; type: binding; conditions: NATA in solution
Method: (§1) Measurements were recorded on a Tecan Infinite® M1000 spectrofluorimeter.

[4] = Indole fluorescence quenching of tryptophan derivative in micelles or liposomes; type: binding
Method: as §1

[5] = target: T1, HCV NS4A[1–22]* transmembrane peptide (Hepatitis C virus genotype 1a, UniProt P27958); assay: Trp fluorescence quenching of peptide in PC:chol liposomes; type: binding; conditions: peptide in PC∶chol liposomes (1∶20)
T1 construct: HCV NS4A[1–22]* transmembrane peptide […]
Method: as §1

[6] = target: Trp residues of model membrane-binding peptides (HCV NS4A and BVDV NS5A); assay: Trp fluorescence quenching, model membrane peptides taken together; conditions: HCV NS4A and BVDV NS5A peptides in PC∶chol liposomes, both pH, summary; read-out: Apparent KD toward peptide Trp
Method: as §1

E2[415–432] peptide = E2[415–432] peptide (Hepatitis C virus genotype 1a, UniProt P27958); assay: Trp fluorescence quenching of fusion-related peptide in PC:chol liposomes; type: binding, HCV strain H (genotype 1a); conditions: peptide in PC∶chol liposomes (1∶20)
Method: as §1

E2[606–625] peptide = E2[606–625] peptide (Hepatitis C virus genotype 1a, UniProt P27958); assay: as above; type: binding, HCV strain H (genotype 1a); conditions: peptide in PC∶chol liposomes (1∶20)
Method: as §1

Solubility of Arb = type: physicochemical
[7] = Free Arb in Arb∶DMPC mixture by ultrafiltration; type: physicochemical; conditions: Arb∶DMPC molar ratio 1∶4, neutral pH, ultrafiltration cutoff 5000 Da
[8] = cited from earlier work
[9] = Surface plasmon resonance binding to immobilized DMPC liposomes (L1 chip)
Method: The running buffer was milliQ water. The influence of liposome concentrations on the final SPR signal was tested; we assayed lipid concentrations from 0.5 to 5 mM and measured the resulting resonance units (RU). […] We therefore chose the 2 mM concentration for our experiments. DMPC liposomes were resuspended in milliQ water and captured on sensor chip at 2 µl/min for 5 min. The flow rate was increased to 30 µl/min and the liposome surface was then washed with 10 mM NaOH for 1 min. Liposomes immobilized on the chip surface gave approx. a 5000 RU signal. […] After each binding cycle, the sensor surface was regenerated to the original matrix by injecting 50 mM NaOH/isopropanol (6∶4, v∶v). The sensor surface was then coated with a fresh liposome suspension for the next binding cycle. KD values were calculated from the equilibrium resonance signal (Req) as a function of the analyte concentration. Req values were estimated by extrapolation to infinite time using plots of resonance signal as a function of the reciprocal of time. Apparent KD were then calculated by nonlinear fitting to the expression Req = RmaxC/(KD+C), where Rmax is the maximum binding capacity of the surface and C is the analyte concentration, using the SigmaPlot software.

HCVpp [10] = assay: Membrane fusion assay: lipid mixing between pseudoparticles and R18-labeled liposomes; conditions: pH 5.0
Method: Lipid mixing between pseudoparticles and PC∶chol∶R18 liposomes was monitored by fluorescent spectroscopy, as the dequenching of R18 [18]. In brief, R18-labeled liposomes (1 µl, 12.5 µM final lipid concentration) were added to a 37°C-thermostated cuvette containing pseudoparticles in PBS pH 7.4 [viral titers: H77 (1a) 5.10e^5; W529A-HC 10e^2; Con1 (1b) 4.10e^4; JFH1 (2a) 5.10e^4; AY734983 (2b) 8.10e^4; AY734984 (3a) 3.10e^4; AY734987 (4a) 9.10e^4; AY785283 (5a) 3.10e^4; AY736194 (6a) 5.10e^3; HA 8.10e^8; Rd114 2.10e^6], and incubated 2 min. Fusion was initiated by acidification to pH 5 with HCl, and recorded on an SLM Aminco 8000 spectrofluorimeter over a 10-min time period, at excitation and emission wavelengths of 560 nm and 590 nm, respectively. Maximal R18 dequenching was measured after the addition of 0.1% Triton X-100 (final concentration) to the cuvette to lyse liposomes.

SMILES: CCOC(=O)c1c(CSc2ccccc2)n(C)c2cc(Br)c(O)c(CN(C)C)c12.Cl [Arb, 1H-indole-3-carboxylic acid, 6-bromo-4-[(dimethylamino)-methyl]-5-hydroxy-1-methyl-2-[(phenylthio)methyl]-, ethyl ester, monohydrochloride]
- inhibition at 11.3 µM (HCVpp [1]; genotype 1a): 40%
- inhibition at 11.3 µM (HCVpp [1]; genotype 1b): 40%
- inhibition at 11.3 µM (HCVpp [1]; genotype 2a): ~60%
- inhibition at 11.3 µM (HCVpp [1]; genotype 2b): 40%
- inhibition at 11.3 µM (HCVpp [1]; genotype 3a): ~60%
- Effect on HCVpp cell entry (HCVpp [1]; genotype 5a): weakly affected
- Effect on HCVpp cell entry (HCVpp [1]; genotype 6a): weakly affected
- Sensitivity of pseudoparticle entry to arbidol [2]: insensitive
- Kd ([3]; pH 5.0): 55 ± 10 µM
- Kd ([3]; pH 7.4): 64 ± 10 µM
- Kd ([4]; TOE associated to liposomes (1∶20), summary, read-out: KD (apparent affinity)): ~10 µM
- Kd ([4]; TOE in PC liposomes (1∶20), pH 5.0, read-out: KD): 9.2 ± 0.2 µM
- Kd ([4]; TOE in PC liposomes (1∶20), pH 7.4, read-out: KD): 6 ± 0.5 µM
- Kd ([4]; TOE in PC∶chol liposomes (1∶20), pH 5.0, read-out: KD): 15.6 ± 1.3 µM
- Kd ([4]; TOE in PC∶chol liposomes (1∶20), pH 7.4, read-out: KD): 11.7 ± 1.4 µM
- Kd ([4]; TOE in lyso-PC micelles (1∶800), pH 5.0, read-out: KD): 48 ± 4 µM
- Kd ([4]; TOE in lyso-PC micelles (1∶800), pH 7.4, read-out: KD): 58 ± 9 µM
- Kd ([5]; pH 5.0): 5.6 ± 0.3 µM
- Kd ([5]; pH 7.4): 3.3 ± 0.6 µM
- Kd [6]: ~4 µM
- Kd (E2[415–432] peptide; pH 5.0): 28 ± 7 µM
- Kd (E2[415–432] peptide; pH 7.4): ~15 µM and 15 µM
- Kd (E2[606–625] peptide; pH 5.0): 70 ± 10 µM
- Kd (E2[606–625] peptide; pH 7.4): 13 ± 3 µM
- Solubility (Solubility of Arb; ethanol): readily soluble
- Solubility (Solubility of Arb; water): soluble in the mM range
- Free Arb [7]: < 0.2%
- Toxicity [8]: low toxicity
- Arb remaining bound to DMPC after dissociation ([9]; all Arb concentrations tested (0.5 to 11.3 µM)): about 50%
- Kd ([9]; read-out: Apparent KD for DMPC, SPR, 30°C, water, Req extrapolated to infinite time, 4 separate experiments): 6.8 ± 0.4 µM
- Inhibition of membrane fusion activity (HCVpp [10]; all tested genotypes, 11.3 µM Arb): about 50%
- IC50 (HCVpp [10]; read-out: IC50 of HCVpp fusion, lipid mixing with R18 liposomes): 11.3 µM and ~10 µM
